Experimental data published in publication PMC7911516, “Investigation of the Factors Responsible for the Poor Oral Bioavailability of Acacetin in Rats: Physicochemical and Biopharmaceutical Aspects” (Pharmaceutics, 2021).

Assay: Parallel artificial membrane permeability assay (PAMPA)
Format: in vitro ADME
Settings: GIT PAMPA Double Sink
Method: Simulated intestinal fluid (SIF) was prepared by dissolving 3 mM sodium taurocholate and 0.1% (w/v) pancreatin in phosphate buffer (final pH = 7.0). The solubility of acacetin was measured by adding excessive amounts of acacetin into glass vials containing 1.5 mL of water, pH 7.4 phosphate buffer, SGF, and SIF. […] The samples were centrifuged at 16,000× g for 5 min, and the supernatant was passed through a 0.20-μm syringe filter to remove excess acacetin. Further, the concentration of acacetin in the filtrate was determined using the LC-MS/MS method. […] Finally, the acacetin concentrations in the octanol and water layers were determined using the LC-MS/MS method. […] The PAMPA was conducted using a commercially available PAMPA kit (GIT PAMPA Double Sink; pION Inc., Massachusetts, MA, USA) according to the manufacturer's protocol. The permeability was calculated using pION PAMPA Explorer ver. 3.8 software (pION Inc., Massachusetts, MA, USA).

Compound: CNC(=C[N+](=O)[O-])NCCSCc1ccc(CN(C)C)o1 [ranitidine, reference compound]
- Papp: 0.411 ×10⁻⁶ cm/s
